Source: paper PMC11845477, “Exploring the principles behind antibiotics with limited resistance” (Nature Communications, 2025)
Where “and” joins values, the source holds several entries; their conditions need not be identical. Identical values can stand only once. Like-named read-outs stand apart in the source and are kept apart here.

How the values were obtained:
[1] = test system: E. coli; type: cell-based, Escherichia coli
Protocol: (§1) We employed image analysis to quantify bacterial survival under fixed antibiotic concentrations (10xMIC for 4 hours) on E. coli, A. baumannii, K. pneumoniae, and P. aeruginosa. […] Survival rate was quantified by calculating the ratio of the viable cells after antibiotic treatment and the total initial viable cell count.
(§2) Fig. 9 Killing kinetics of the studied antibiotics. a Bacterial survival rate in response to toxic antibiotic exposure. […] The bars indicate the survival rate (log10) compared to the untreated initial viable cell count (see “Methods”). Data are presented as mean values of 5 biological replicates ± SEM. The antibiotic group differentiation is denoted by color. […] Survival was estimated by measuring cell viability (colony-forming units/ml) of 2 biologically independent strains following a 4-hour exposure to different concentrations of 16 antibiotics on E. coli ATCC25922 (for further details, see “Methods”). The antibiotic concentration that kills 99.9% of the E. coli population is indicated as a vertical dotted line (see Supplementary Data 5). Error bars represent standard error calculated from the colony counts by Poisson’s model. A Hill function was fitted to the dose-response data from two biological replicates, producing sigmoidal curves (Supplementary Data 5). The Hill coefficient reflects how steeply the survival rate decreases in response to increasing antibiotic concentration ([…]). […] X-axis label colors indicate mode of action groups. For detailed information on antibiotic and bacterial species, see Supplementary Data 1. Source data are provided as a Source Data file.
(§3) In this current study, the killing kinetics of each antibiotic was measured according to a previously established experimental protocol[62] with minor modifications. During this assay, the bacterial cultures were exposed to antibiotics in 96-well assay plates and their viability after 4 hours of exposure was quantified by two methods: i) microplating and colony counting or ii) fluorescent staining of cells and counting of the fluorescent units.
(§4) Specifically, these experiments were performed in the following steps: (1) Preparation of bacterial stocks. Single colonies from each strain were isolated and grown overnight in MHB medium at 37 °C, 160 rpm. In case of the fluorescently tagged E. coli strains, the medium was supplemented with 10 μg/mL chloramphenicol, to maintain the pZS2R plasmid. Overnight cultures were diluted 1:5000 and grown to an optical density at 600 nm (OD600) of 0.25. These cultures were concentrated by centrifugation and small aliquots of 50 μL containing ~2.2 × 10^9 cells were frozen in glycerol (stored at −80 °C). (2) Preparing assay plates with antibiotics. 96-well plates were filled with 235 μL MHB and supplemented with antibiotics using an automated digital dispenser (D300e, Tecan). In the case of SCH79797, we used minimal media. […] For testing the clearance efficacy of each antibiotic at a single lethal dose, the 10x of the MIC for each antibiotic-strain pair were prepared in at least three replicates. (3) Antibiotic exposure. During the dose response assay, frozen cultures of the E. coli strains expressing YFP and mCherry were thawed and mixed at a 1:1 ratio, diluted 1:1000 in 30 mL MHB and incubated for 45 min at 37 °C and 160 rpm. During the single-dose assay, the frozen cultures of experimental strains (E. coli, K. pneumoniae, A. baumannii) were also thawed and diluted 1:1000 in 30 mL MHB and incubated at 37 °C to reach an OD of 0.25 and 160 rpm. Following this incubation phase, these bacterial cultures were then aliquoted into the 96-well deep-well antibiotic plates (15 μL culture; total volume of 250 μL) at an inoculum density of about 10^7 CFU.

[2] = test system: P. aeruginosa; type: cell-based, Pseudomonas aeruginosa
Protocol: as §1, §2, §3, §4

[3] = test system: A. baumannii; test: Bacterial survival at 10xMIC for 4 hours; type: cell-based, Acinetobacter baumannii; details: Acinetobacter baumannii, survival at 10xMIC for 4 hours, single replicates, (fig 9a source data)
Protocol: as §1, §2, §3, §4

[4] = test system: K. pneumoniae; type: cell-based, Klebsiella pneumoniae
Protocol: as §1, §2, §3, §4

Substance: POL7306
- Survival rate (log10) [1]: -4.747 log10
- Survival rate (log10) ([1]; Escherichia coli, survival at 10xMIC for 4 hours, single replicates, (fig 9a source data), listed as POL): -4.446 log10 and -4.3509 log10
- Survival rate (log10) [2]: -6 log10
- Survival rate (log10) ([2]; Pseudomonas aeruginosa, survival at 10xMIC for 4 hours, single replicates, (fig 9a source data), listed as POL): -2.602 log10 and -2.902 log10 and -2.057 log10
- Survival rate (log10) ([3]; listed as POL): -3.645 log10 and -4.987 log10 and -2.756 log10 and -3.625 log10 and -3.539 log10
- Survival rate (log10) [4]: -3.973 log10 and -4.193 log10
- Survival rate (log10) ([4]; Klebsiella pneumoniae, survival at 10xMIC for 4 hours, single replicates, (fig 9a source data)): -4.671 log10

Substance: colistin
- Survival rate (log10) ([1]; Escherichia coli, survival at 10xMIC for 4 hours, single replicates, (fig 9a source data), listed as COL): -4.747 log10 and -3.794 log10
- bacterial survival after toxic antibiotic exposure ([2]; 10xMIC for 4 hours): eliminate the full bacterial population
- Survival rate (log10) ([2]; Pseudomonas aeruginosa, survival at 10xMIC for 4 hours, single replicates, (fig 9a source data)): -6 log10
- Survival rate (log10) ([3]; listed as COL): -3.481 log10 and -3.59 log10 and -3.495 log10 and -4.987 log10 and -3.369 log10
- Survival rate (log10) ([4]; Klebsiella pneumoniae, survival at 10xMIC for 4 hours, single replicates, (fig 9a source data), listed as COL): -3.893 log10 and -3.973 log10 and -4.193 log10 and -4.37 log10
